Results from patent US10508111B2, “6-[5-amino-6-(2-ethoxyethoxy)-imidazo[4,5-B]pyridin-3-yl]-nicotinonitrile derivatives and their use as IRAK inhibitors” (GALAPAGOS NV, priority 2015, dated 2019).

Tests used:
[1] = tested on: TNFα triggered MMP13 release in SW1353 cells; assay: SW1353 cellular selectivity assay, TNFα trigger, MMP13 readout; format: cell-based, human; conditions: TNFα trigger 10 ng/mL; for IC50: Homo sapiens; for TNFα trigger MMP13 PIN at 20 μM: percent inhibition at 20 μM compound
Excerpt: The aim of this assay is to evaluate the selectivity of compounds of the invention for the activated TLR/IRAK-4 pathway in an in vitro human cellular assay setting. SW1353 cells are from a chondrocytic cell line and are responsive to both the interleukin 1 (IL-1) and the TNFα cytokine triggers. Both cytokine triggers induce the expression of interleukin 6 (IL-6) and MMP13 by these cells. IL-6 and MMP13 releases are used as readouts in this assay and represent a measure for the level of inhibition of the TLR/IRAK-4 pathway by the tested compound.
SW1353 cells are cultured in DMEM supplemented with 10% FBS and 1% Penicillin/Streptomycin. Cells are incubated at 37° C. in a humidified atmosphere of 5% CO2 and subcultured twice a week. During subculturing, trypsin-EDTA is used to detach the cells, followed by a neutralization step with cell culture medium. After centrifugation (1,000 rpm during 5 min), the pellet is resuspended in cell culture medium and cells are counted using an automated cell counter (Invitrogen Countess™).
Cells are used at passage 16 and plated at a density of 15,000 cells per well in 120 μL cell culture medium in 96-well culture plates. Cells are allowed to attach during overnight incubation.
SW1353 cells are pre-incubated with test compound by addition of 15 μL of 10× concentrated compound solution for 2 h at 37° C. and 5% CO2. The compounds are tested at different concentrations and prepared by 3-fold serial dilutions from the 10 mM stock solution in DMSO followed by a 1/50 dilution step in cell culture medium. Final test concentrations in the assay start from 20 μM, with subsequent 3-fold serial dilutions with equal final DMSO concentrations of 0.2%. After the compound pre-incubation step, the SW1353 cells are triggered by addition of 15 μL of 10× concentrated IL-1f (Peprotech, 200-01B) or TNFα trigger (Peprotech, 300-01A) to the wells with final assay volume of 150 μL per well and final trigger concentration of 1 ng/mL and 10 ng/mL, respectively. Negative controls are adjusted with equal DMSO concentrations without trigger. The assay plates are then incubated in a humidified incubator at 37° C. and 5% CO2. Cell supernatants are harvested 24 h and 48 h later by transferring the cell medium into a V-bottom polypropylene 96-well plate and stored at −80° C. until ELISA readout.
The levels of secreted MMP13 in the cell supernatants are quantified in an antibody capture activity assay. […] After incubation for 1 h at 37° C., fluorescence of the converted substrate is measured with a PerkinElmer EnVision® (excitation wavelength: 320 nm, emission wavelength: 405 nm).
All controls are measured within the linear range of the human IL-6 and MMP13 standard curve of the ELISA. […]

ABL = target: T1, ABL (Homo sapiens, UniProt P00519); assay: Kinase selectivity profiling (focused panel), radioactive filter plate assay: ABL; format: biochemical; conditions: PolyGT substrate, 0.5 μM ATP, 60 min
T1 construct: purchased Life Technologies P3049
Procedure: (§1) The purpose of this assay is to determine the activity and selectivity of a compound of the invention on a selected range of human kinases which may result in undesirable side-effects when inhibited (Dy & Adjei 2013; Force & Kolaja 2011).
(§2) The IC50 value for off-target kinases is determined in radioactive filter plate assays. The principle of the assays consists in the measurement of incorporated ^33P into a peptide substrate upon phosphorylation by the kinase enzyme using [γ-^33P]ATP and ATP. Unincorporated ^33P is removed by loading the samples on a filter plate (using a harvester, PerkinElmer) and 6 subsequent washing steps. Incorporated ^33P in the peptide substrate is measured by a scintillation counter (Topcount, PerkinElmer) after addition of MicroScint™-20 (PerkinElmer, 6013621) to the filter plates.
(§3) 5 μL of a water dilution series of test compound (starting from 20 μM or 6.6 μM highest concentration), from a 100% DMSO stock solution, 1/5 dilution, is added to the wells (final DMSO concentration of 1% in reaction assay). Enzyme and peptide substrate are used at optimized concentrations (cf. Table VI). The enzyme and substrate are diluted in assay buffer to a total volume of 11 μL. The reaction is started by addition of 9 μL of ATP+[γ-^33P]ATP, diluted in the same buffer as enzyme and substrate. The mixture is incubated at 30° C. The reaction is terminated by adding 25 μL of 150 mM phosphoric acid. Samples are transferred to filter plates and incorporated radioactivity is measured using a scintillation counter.
The incubation time, assay buffer composition, and concentrations of ATP, enzyme and substrate are reported in Table VI for example kinase off-target assays.
10 μM staurosporine (1% DMSO) is used as positive control (100% inhibition); vehicle (water+1% DMSO) as negative control (0% inhibition).

Aurora B = target: T2, Aurora B (Homo sapiens, UniProt Q96GD4); assay: Kinase selectivity profiling (focused panel), radioactive filter plate assay: Aurora B; format: biochemical; conditions: Histone H3 peptide, 1.3 μM ATP, 90 min
T2 construct: purchased Carna BioSciences 05-102
Procedure: as §1, §2
as §3, with “The reaction is started by addition of 9 μL of ATP+[γ-^33P]ATP, diluted in the same buffer as enzyme and substrate. The mixture is incubated at 30° C. The reaction is terminated by adding 25 μL of 150 mM phosphoric acid.” left out, “counter. […]” for “counter.”

T1 sequence (P00519 whole entry): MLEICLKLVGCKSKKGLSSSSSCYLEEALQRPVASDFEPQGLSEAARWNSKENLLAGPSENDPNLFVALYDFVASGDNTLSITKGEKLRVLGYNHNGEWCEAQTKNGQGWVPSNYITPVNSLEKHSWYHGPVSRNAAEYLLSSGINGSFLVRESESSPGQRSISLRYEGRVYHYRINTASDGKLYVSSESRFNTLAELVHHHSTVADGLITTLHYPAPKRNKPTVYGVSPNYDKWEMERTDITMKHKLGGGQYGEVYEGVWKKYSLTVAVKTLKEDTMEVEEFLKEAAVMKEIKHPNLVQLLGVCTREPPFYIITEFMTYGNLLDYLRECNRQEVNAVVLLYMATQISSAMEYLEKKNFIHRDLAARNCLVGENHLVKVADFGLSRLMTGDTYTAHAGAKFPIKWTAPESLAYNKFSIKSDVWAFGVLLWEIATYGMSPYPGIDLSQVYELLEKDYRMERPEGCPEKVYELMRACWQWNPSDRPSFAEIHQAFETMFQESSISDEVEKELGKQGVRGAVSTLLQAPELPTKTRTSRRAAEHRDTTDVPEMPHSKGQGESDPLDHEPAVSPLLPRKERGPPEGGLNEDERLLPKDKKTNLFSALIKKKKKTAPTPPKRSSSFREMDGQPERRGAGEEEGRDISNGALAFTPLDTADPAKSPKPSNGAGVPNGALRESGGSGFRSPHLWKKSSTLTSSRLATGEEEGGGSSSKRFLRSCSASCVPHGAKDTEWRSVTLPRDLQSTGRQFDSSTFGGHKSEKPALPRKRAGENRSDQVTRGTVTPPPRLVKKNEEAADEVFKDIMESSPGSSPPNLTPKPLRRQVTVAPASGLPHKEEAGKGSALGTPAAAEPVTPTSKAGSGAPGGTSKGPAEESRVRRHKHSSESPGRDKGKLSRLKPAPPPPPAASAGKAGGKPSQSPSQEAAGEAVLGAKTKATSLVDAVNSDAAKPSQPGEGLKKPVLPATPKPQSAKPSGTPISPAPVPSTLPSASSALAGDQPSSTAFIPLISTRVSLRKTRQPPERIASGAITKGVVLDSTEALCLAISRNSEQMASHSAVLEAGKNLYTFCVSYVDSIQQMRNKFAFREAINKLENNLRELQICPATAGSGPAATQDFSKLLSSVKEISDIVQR
T2 sequence (Q96GD4 whole entry): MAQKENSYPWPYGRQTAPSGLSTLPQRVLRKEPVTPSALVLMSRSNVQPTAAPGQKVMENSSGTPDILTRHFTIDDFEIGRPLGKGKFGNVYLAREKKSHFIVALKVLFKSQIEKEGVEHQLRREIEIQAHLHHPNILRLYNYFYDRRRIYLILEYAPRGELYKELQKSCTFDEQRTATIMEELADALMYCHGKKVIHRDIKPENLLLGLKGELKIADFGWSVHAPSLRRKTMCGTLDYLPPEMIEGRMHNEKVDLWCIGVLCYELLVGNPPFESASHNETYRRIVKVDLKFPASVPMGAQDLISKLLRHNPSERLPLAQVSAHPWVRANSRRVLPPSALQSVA
T2 sequence (Q9NQS7 803-918 partner limits assumed): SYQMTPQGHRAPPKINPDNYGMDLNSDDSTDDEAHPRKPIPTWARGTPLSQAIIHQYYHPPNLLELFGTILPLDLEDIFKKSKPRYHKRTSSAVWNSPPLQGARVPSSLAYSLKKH

Row | IC50 [1] [µM] | IC50 (ABL) [µM] | IC50 (Aurora B) [µM] | Compound | TNFα trigger MMP13 PIN at 20 μM [1]
1 | > 20 |  |  | N#Cc1ccc(-n2cnc3cc(OCCOCCO)c(NC4CCOCC4)nc32)nc1 [Compound 1, 6-[6-[2-(2-hydroxy-ethoxy)-ethoxy]-5-(tetrahydro-pyran-4-ylamino)-imidazo[4,5-b]pyridin-3-yl]-nicotinonitrile] | [26%]
2 | > 20 | 0.138 | > 1.88 | C[C@]1(O)CC[C@@H](Nc2nc3c(cc2OCCOCCO)ncn3-c2ccc(C#N)cn2)CC1 [Compound 12, 6-[6-[2-(2-hydroxyethoxy)ethoxy]-5-[((cis-1,4)-4-hydroxy-4-methylcyclohexyl)amino]imidazo[4,5-b]pyridin-3-yl]pyridine-3-carbonitrile] | [36%]
